From paper PMC5290997 (Bioconjugate chemistry, 2016)

What was measured:
PSMA = PSMA (Homo sapiens, UniProt Q04609); assay: PSMA inhibition assay; assay type: biochemical; conditions: LNCaP cell lysates, 4 µM NAAG, Cheng-Prusoff conversion
[1] = chelating agent for ^68Ga; cited from earlier work

Chain of PSMA (Q04609 whole entry): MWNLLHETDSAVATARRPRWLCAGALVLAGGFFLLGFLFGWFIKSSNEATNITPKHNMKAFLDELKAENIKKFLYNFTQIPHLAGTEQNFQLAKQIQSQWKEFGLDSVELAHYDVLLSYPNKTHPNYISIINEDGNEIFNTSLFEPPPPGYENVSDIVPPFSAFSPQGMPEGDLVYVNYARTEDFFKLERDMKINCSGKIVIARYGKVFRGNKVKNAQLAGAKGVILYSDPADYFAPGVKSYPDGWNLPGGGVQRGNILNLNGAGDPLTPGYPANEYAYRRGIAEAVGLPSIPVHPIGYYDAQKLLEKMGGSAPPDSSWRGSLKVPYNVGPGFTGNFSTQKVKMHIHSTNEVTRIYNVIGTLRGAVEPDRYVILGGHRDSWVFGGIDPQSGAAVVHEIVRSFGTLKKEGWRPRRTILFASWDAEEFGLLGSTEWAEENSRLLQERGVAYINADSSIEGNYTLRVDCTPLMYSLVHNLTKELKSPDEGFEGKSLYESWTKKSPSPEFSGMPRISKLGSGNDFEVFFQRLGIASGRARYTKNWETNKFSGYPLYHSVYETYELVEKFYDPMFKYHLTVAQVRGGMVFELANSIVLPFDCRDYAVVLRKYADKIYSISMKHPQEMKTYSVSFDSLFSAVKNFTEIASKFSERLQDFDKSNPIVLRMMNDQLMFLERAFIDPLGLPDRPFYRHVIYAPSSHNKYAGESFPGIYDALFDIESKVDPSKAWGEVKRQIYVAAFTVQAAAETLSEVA

Ki (PSMA)	Compound	stability constant, KML [1]
0.03 nM	O=C(O)CCc1ccc(O)c(CN(CCN(CC(=O)O)Cc2cc(CCC(=O)NCCCCCC(=O)NCCCC[C@H](NC(=O)N[C@@H](CCC(=O)O)C(=O)O)C(=O)O)ccc2O)CC(=O)O)c1 [DKFZ-PSMA-11, Glu-urea-Lys-(Ahx)-HBED-CC]	
	O=C(O)CN1CCN(CC(=O)O)CCN(CC(=O)O)CCN(CC(=O)O)CC1 [DOTA]	21.3
	O=C(O)CN1CCN(CC(=O)O)CCN(CC(=O)O)CC1 [NOTA, 1,4,7-triazacyclononane-1,4,7-triacetic acid]	31.1
